This note sets out measurements from patent US9040712B2, “Thiadiazole analogs thereof and methods for treating SMN-deficiency-related-conditions” (NOVARTIS AG, priority 2013, dated 2015).

SMILES strings stand for the structures. Where a name gives a salt, the structure may show the parent alone.

In the test the test system is SMN protein. Nature of the test: cellular SMN ELISA (SMN protein elevation). In kind it is cell-based. The note with it: myoblast cell line derived from SMNdelta7 mouse model; 24 hours compound treatment; concentration range 100 pM-10 uM. Summed up: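 Myoblasts derived from the SMNdelta7 mouse model, 3000 cells/well, treated with compound (100 pM–10 uM) for 24 h, then lysed in modified RIPA buffer. SMN protein quantified by sandwich ELISA (anti-SMN mAb capture, rabbit polyclonal detection, HRP/TMB, 450 nm). Results given as fold activation over DMSO and EC50.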
Background: An ELISA detects its analyte on a solid surface through an enzyme-linked reagent.
Regarding `CN(c1nnc(-c2cc3ccccc3n(C)c2=O)s1)C1CC(C)(C)NC(C)(C)C1` [Example 104, 1-methyl-3-(5-(methyl(2,2,6,6-tetramethylpiperidin-4-yl)amino)-1,3,4-thiadiazol-2-yl)quinolin-2(1H)-one], the concentration for a half-maximal effect (EC50) (as a rule, the midpoint of the concentration-response curve) was 100 nM and the “SMN Activity Fold (fold activation over DMSO control)” value (“SMN Activity Fold” for short) was found to be 2.76 fold.

`CN(c1nnc(-c2ccc3cc(O)ccc3c2)s1)C1CC(C)(C)NC(C)(C)C1` [Example 2, 6-(5-(Methyl(2,2,6,6-tetramethylpiperidin-4-yl)amino)-1,3,4-thiadiazol-2-yl)naphthalen-2-ol]: the EC50 was 436 nM and the “SMN Activity Fold” value came out at 2.66 fold.

Take `CN(c1nnc(-c2ccc(-c3cnn(C)c3)cc2O)s1)C1CC(C)(C)NC(C)(C)C1` [Example 15, 2-(5-(Methyl(2,2,6,6-tetramethylpiperidin-4-yl)amino)-1,3,4-thiadiazol-2-yl)-5-(1-methyl-1H-pyrazol-4-yl)phenol]: it took 32 nM to reach a half-maximal effect (EC50) and the “SMN Activity Fold” value is given as 3.14 fold.

Take `COc1c(-c2nnc(N(C)C3CC(C)(C)NC(C)(C)C3)s2)c(=O)n(C)c2ccccc12` [Example 101, 4-methoxy-1-methyl-3-(5-(methyl(2,2,6,6-tetramethylpiperidin-4-yl)amino)-1,3,4-thiadiazol-2-yl)quinolin-2(1H)-one]: the midpoint of the response, the EC50, lay at 742 nM and the “SMN Activity Fold” value was found to be 2.51 fold.

For the molecule `COc1cc(-c2ccc(O)nc2)ccc1-c1nnc(N(C)C2CC(C)(C)NC(C)(C)C2)s1` [Example 9, 5-(3-Methoxy-4-(5-(methyl(2,2,6,6-tetramethyl-piperidin-4-yl)amino)-1,3,4-thiadiazol-2-yl)phenyl)pyridin-2-ol], a half-maximal response (EC50) required 784 nM and the “SMN Activity Fold” value was 2.46 fold.

As to `CN(C)CC1CN(c2nnc(-c3ccc(-c4cn[nH]c4)cc3Cl)s2)CCO1` (stereo not shown) [Example 82, 1-(4-(5-(2-chloro-4-(1H-pyrazol-4-yl)phenyl)-1,3,4-thiadiazol-2-yl)morpholin-2-yl)-N,N-dimethylmethanamine], the midpoint of the response, the EC50, lay at 994 nM and the “SMN Activity Fold” value is given as 2.50 fold.

Turning to `Cn1cc(-c2ccc(-c3nnc(NC4CC(C)(C)NC(C)(C)C4)s3)c(Cl)c2)cn1` [Example 27, 5-(2-chloro-4-(1-methyl-1H-pyrazol-4-yl)phenyl)-N-(2,2,6,6-tetramethylpiperidin-4-yl)-1,3,4-thiadiazol-2-amine], a half-maximal effect (EC50) was put at 193 nM and the “SMN Activity Fold” value turned out to be 2.48 fold.

As to `OC[C@H]1CN(c2nnc(-c3ccc(-c4cn[nH]c4)cc3Cl)s2)CCN1` [Example 107, (R)-(4-(5-(2-chloro-4-(1H-pyrazol-4-yl)phenyl)-1,3,4-thiadiazol-2-yl)piperazin-2-yl)methanol•Hydrochloride Salt], the midpoint of the response, the EC50, lay at 4540 nM and the “SMN Activity Fold” value is given as 2.06 fold.

As for `CN(c1nnc(-c2ccc(-c3cnn4c3CCCC4)cc2Cl)s1)C1CC(C)(C)NC(C)(C)C1` [Example 41, 5-(2-chloro-4-(4,5,6,7-tetrahydropyrazolo[1,5-a]pyridin-3-yl)phenyl)-N-methyl-N-(2,2,6,6-tetramethylpiperidin-4-yl)-1,3,4-thiadiazol-2-amine], the EC50 was 507 nM and the “SMN Activity Fold” value came to 2.44 fold.

For `COc1cc(-c2ccn(C)c(=O)c2)ccc1-c1nnc(N(C)C2CC(C)(C)NC(C)(C)C2)s1` [Example 8, 4-(3-Methoxy-4-(5-(methyl(2,2,6,6-tetramethyl-piperidin-4-yl)amino)-1,3,4-thiadiazol-2-yl)phenyl)-1-methylpyridin-2(1H)-one], the EC50 came out at 134 nM and the “SMN Activity Fold” value was found to be 3.20 fold.

Consider `CN(c1nnc(-c2ccc(-c3cn[nH]c3)cc2O)s1)C1CC(C)(C)NC(C)(C)C1` [Example 93, 2-(5-(methyl(2,2,6,6-tetramethylpiperidin-4-yl)amino)-1,3,4-thiadiazol-2-yl)-5-(1H-pyrazol-4-yl)phenol], for which a half-maximal response (EC50) required 404 nM and the “SMN Activity Fold” value is listed as 2.47 fold.

With `CN1C[C@@H]2CN(c3nnc(-c4ccc(-c5cnn(C)c5)cc4Cl)s3)C[C@@H]2C1` [Example 79, 2-(2-chloro-4-(1-methyl-1H-pyrazol-4-yl)phenyl)-5-((3aR,6aS)-5-methylhexahydropyrrolo[3,4-c]pyrrol-2(1H)-yl)-1,3,4-thiadiazole], the EC50 is 150 nM and the “SMN Activity Fold” value came to 2.76 fold.

Consider `COc1cc(-n2cccn2)ccc1-c1nnc(NC2CC(C)(C)N(C)C(C)(C)C2)s1` [Example 5, 5-(2-Methoxy-4-(1H-pyrazol-1-yl)phenyl)-N-(1,2,2,6,6-pentamethylpiperidin-4-yl)-1,3,4-thiadiazol-2-amine], for which the 50% effective concentration (EC50) amounted to 87 nM and the “SMN Activity Fold” value was 2.88 fold.

`Cn1cc(-c2ccc(-c3nnc(N4CC5(CCCNC5)C4)s3)c(O)c2)cn1` [Example 94, 2-(5-(2,6-diazaspiro[3.5]nonan-2-yl)-1,3,4-thiadiazol-2-yl)-5-(1-methyl-1H-pyrazol-4-yl)phenol]: the EC50 was 155 nM and the “SMN Activity Fold” value was 2.59 fold.
